Results taken from patent US20230151065A1, “MULTI-DISULFIDE-BOND LONG-CHAIN PEPTIDE WITH NEURO[…], PHARMACEUTICAL COMPOSITION AND APPLICATION” (priority 2018, published 2023).
Where no end group is shown, it is not given here.

Tested on: primary cultured hippocampal neurons damaged by NMDA
Assay: NMDA damage of primary cultured hippocampal neurons, MTT viability
Format: cell-based, SD (Sprague-Dawley) rat
Settings: for hippocampal neuron activity after NMDA damage (MTT): MK801 10 μM
From the text: (1) Establishment of NMDA damage model. Primary culture of hippocampal neurons: SD (Sprague-Dawley) female rats pregnant for 18-19 days were anesthetized with a compound anaesthetic agent; fetal rat brains were taken under aseptic conditions and placed in HBSS solution (8.4 g/L of NaCl, 0.224 g/L of KCl, 2.38 g/L of HEPES, 500,000 units of penicillin sodium and 500,000 units of kanamycin sulfate; the pH was adjusted to 7.1-7.2 with 1M NaOH; then the osmotic pressure was adjusted to about 290±10 m Osm with ultrapure water; and after filtration, the solution was stored at 4° C.); the meninges were removed under a stereoscopic dissecting microscope; the bilateral hippocampus was removed and digested in 0.125% pancreatic protease at 37° C. for 10 min; and complete media (90% DMEM medium+10% FBS) (FBS: fetal bovine serum) was used to terminate the digestion; the bilateral hippocampus was washed for 3 times with the complete media to make a single cell suspension; the cell density was adjusted to about 7-8×10^5/ml; and the bilateral hippocampus was inoculated to a 6-well/96-well cell culture plate/60 mm culture dish/slide coated with L-polylysine. After 24 hours, the media were changed to serum-free neurobasal media (GIBCO) which were then placed in a 5% CO2, 37° C. incubator for culture; and half of the solution was changed every three days.
(2) NMDA damage treatment of hippocampal neurons: (1) The original media were sucked out and the cells were washed with magnesium-free extracellular fluid for three times, each for 5 minutes. (2) 10 mM NMDA (N-methyl-D-aspartic acid) and 10 mM Gly (glycine) were prepared with magnesium-free extracellular fluid, and NMDA was prepared to different concentrations with the magnesium-free extracellular fluid, wherein the final concentration of Gly was 10 μM. […] After damage, the cells were washed for three times with DMEM medium, each for 5 minutes. (3) The original culture media were re-added to continue for culturing for 24 hours.
(3) Detection of viability of hippocampal neurons after NMDA damage: (1) The hippocampal neurons were inoculated into a 96-well culture plate at 8×10^5 cells/ml, 0.1 ml per well, and cultured in a 5% CO2 incubator for 7-8 days. (2) After NMDA damage treatment and continuous culture for 24 hours, the culture solution was sucked off. (3) 100 μl of DMEM culture medium containing MTT (3-(4,5-dimethylthiazole-2)-2,5-diphenyltetrazolium bromide, 0.5 mg/ml) was added to each well, and the culture plate was put into 37° C., 5% CO2 incubator for culturing for 4 h. (4) 100 μl of 20% SDS was added to each well (20 g of sodium lauryl sulfate was dissolved in 50 ml of ddH2O+50 ml of N,N dimethylformamide) at 37° C. for 20 h. (5) The solution was shaken on a horizontal shaker for 5 min. (6) The optical density (OD) was measured at 570 nm (reference wavelength of 490 nm) on a microplate reader.
(6) Effect of ABPPk2 on decrease of hippocampal neuron activity caused by NMDA. Effect of different concentrations of ABPPk2 on hippocampal neuron damage caused by NMDA (100 μM, 30 min). The experiment was divided into 9 experimental groups: a normal group, NMDA (100 μM, 30 min) group (as a control group), ABPPk2 (0.01 μg/ml) group, ABPPk2 (0.1 μg/ml) group, ABPPk2 (0.3 μg/ml) group, ABPPk2 (1 μg/ml) group, ABPPk2 (3 μg/ml) group, ABPPk2 (10 μg/ml) group and MK801 (dizocilpine, 10 μM) group (as a positive control group). Three administration ways were adopted for ABPPk2: (1) ABPPk2 was administered 12 hours before and during the NMDA damage. (2) ABPPk2 was administered during NMDA damage. (3) ABPPk2 was administered during 24 hours of culture after NMDA damage.

Substance: Cys-Leu-Glu-Ser-Gly-Thr-Ser-Cys-Ile-Pro-Gly-Ala-Gln-His-Asn-Cys-Cys-Ser-Gly-Val-Cys-Val-Pro-Ile-Val-Thr-Ile-Phe-Tyr-Gly-Val-Cys-Tyr (CLESGTSCIPGAQHNCCSGVCVPIVTIFYGVCY; disulfide (positions not given here); not fully specified (bridges); also: three disulfide bonds, pairing not given here) [ABPPk2, 33 amino acid polypeptide isolated from the extract of Achyranthes bidentata Blume, three pairs of disulfide bonds]
- hippocampal neuron activity after NMDA damage (MTT) (given 12 h before and during NMDA (100 μM, 0.5 h), ABPPk2 0.1, 0.3 and 1 μg/ml groups): can effectively reduce the decrease of hippocampal neuron activity caused by NMDA damage
- hippocampal neuron activity after NMDA damage (MTT) (given during 24 h culture after NMDA damage (100 μM, 0.5 h), ABPPk2 0.1-10 μg/ml): can effectively reduce the decrease of hippocampal neuron activity caused by NMDA damage
- hippocampal neuron activity after NMDA damage (MTT) (given during NMDA damage (100 μM, 0.5 h), ABPPk2 1 and 10 μg/ml groups): can effectively reduce the decrease of hippocampal neuron activity caused by NMDA damage
- protective effect on NMDA damage of primary hippocampal neurons (overall statement, experimental solution of embodiment 6, concentration and administration way not stated): has a protective effect on the damage of primary cultured hippocampal neurons induced by NMDA
